One data set deals with T1, Cytochrome P450 1A2 (Homo sapiens, UniProt P05177).
T1 sequence (P05177 whole entry): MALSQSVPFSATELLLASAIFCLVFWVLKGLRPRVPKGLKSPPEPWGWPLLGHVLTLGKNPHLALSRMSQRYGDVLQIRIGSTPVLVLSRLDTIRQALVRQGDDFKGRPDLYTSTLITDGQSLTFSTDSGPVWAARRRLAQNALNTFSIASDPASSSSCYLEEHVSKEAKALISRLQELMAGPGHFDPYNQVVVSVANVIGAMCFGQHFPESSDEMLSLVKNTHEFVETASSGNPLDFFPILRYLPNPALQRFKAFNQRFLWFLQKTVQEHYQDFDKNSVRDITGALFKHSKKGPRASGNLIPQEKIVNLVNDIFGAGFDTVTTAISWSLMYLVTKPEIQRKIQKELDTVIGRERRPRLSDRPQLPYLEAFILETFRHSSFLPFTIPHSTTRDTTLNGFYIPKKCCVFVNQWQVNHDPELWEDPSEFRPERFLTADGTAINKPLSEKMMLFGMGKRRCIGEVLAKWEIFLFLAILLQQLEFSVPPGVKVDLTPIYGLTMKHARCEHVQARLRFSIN

In data set [1] the target is Intestinal-type alkaline phosphatase (Mus musculus, UniProt P24822). Put plainly: PubChem AID 488785. The format is functional.
Data set [2] has as its target T2, Rac GTPase-activating protein 1 (Homo sapiens, UniProt Q9H0H5).
T2 sequence (Q9H0H5 whole entry): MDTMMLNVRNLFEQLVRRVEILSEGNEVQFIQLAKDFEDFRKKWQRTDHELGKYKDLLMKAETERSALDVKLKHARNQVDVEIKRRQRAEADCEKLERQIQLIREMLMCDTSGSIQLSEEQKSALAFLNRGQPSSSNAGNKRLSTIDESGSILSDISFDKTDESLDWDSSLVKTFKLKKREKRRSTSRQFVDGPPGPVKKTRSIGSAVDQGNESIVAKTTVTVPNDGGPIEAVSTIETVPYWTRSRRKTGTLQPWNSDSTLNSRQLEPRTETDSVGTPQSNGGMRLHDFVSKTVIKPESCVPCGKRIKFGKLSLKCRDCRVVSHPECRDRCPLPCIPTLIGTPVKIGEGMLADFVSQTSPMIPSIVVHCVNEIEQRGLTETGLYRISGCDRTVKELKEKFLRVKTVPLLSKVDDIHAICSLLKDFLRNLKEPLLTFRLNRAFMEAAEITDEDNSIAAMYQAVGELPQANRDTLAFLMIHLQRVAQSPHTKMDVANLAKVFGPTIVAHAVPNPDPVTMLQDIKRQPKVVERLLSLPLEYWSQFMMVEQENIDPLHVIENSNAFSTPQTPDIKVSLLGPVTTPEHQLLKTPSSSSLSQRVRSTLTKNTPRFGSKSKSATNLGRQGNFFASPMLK
Put plainly: blockers of MgcRacGAP-driven Rac1 GTP hydrolysis – biochemical, ADP Hunter fluorescence, primary and confirmatory, confirmation (AID 624330). The format is functional.

Data set [3] is described as follows: viability loss in THP-1 monocytes – THP-1 cells, cytotoxicity control for Vif-APOBEC3G degradation inhibitor project, dose response (AID 1117359). The format is functional. Conditions: THP-1.
The target in data set [4] is T3, Alkaline phosphatase, tissue-nonspecific isozyme (Homo sapiens, UniProt P05186).
T3 sequence (P05186 whole entry): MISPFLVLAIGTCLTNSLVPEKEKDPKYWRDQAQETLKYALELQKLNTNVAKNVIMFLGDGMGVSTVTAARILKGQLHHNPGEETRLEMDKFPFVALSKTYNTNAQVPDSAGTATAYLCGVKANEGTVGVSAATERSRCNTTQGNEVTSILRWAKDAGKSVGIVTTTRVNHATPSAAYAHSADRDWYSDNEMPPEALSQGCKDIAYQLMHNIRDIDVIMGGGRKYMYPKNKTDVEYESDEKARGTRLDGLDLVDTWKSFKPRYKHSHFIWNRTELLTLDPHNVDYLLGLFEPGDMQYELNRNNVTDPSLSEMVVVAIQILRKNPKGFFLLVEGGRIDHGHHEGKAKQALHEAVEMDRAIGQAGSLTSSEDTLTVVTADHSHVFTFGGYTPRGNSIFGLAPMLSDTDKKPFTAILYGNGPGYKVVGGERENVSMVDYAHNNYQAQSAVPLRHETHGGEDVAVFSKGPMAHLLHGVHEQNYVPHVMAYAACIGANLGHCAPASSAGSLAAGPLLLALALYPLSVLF
In words: TNAP enzyme inhibition by screening hits, dose response, selectivity assay for mouse IAP inhibitor project, biochemical, human TNAP, uHTS hits (AID 488906). It counts as functional.

Another data set concerns the target Large T antigen (Simian virus 40, UniProt P03070). The format is functional, Betapolyomavirus macacae.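 Note: Confirmatory-stage PubChem screen for compounds that inhibit SV40 T antigen.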
A short description of data set [5]: MIN6 cell viability loss – mouse insulinoma, cytotoxicity control, dose response (AID 2122).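 Note: confirmatory high-throughput counterscreen run to flag cytotoxic compounds.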 It counts as functional.
The subject of another data set is H4. Put plainly: Luminescence Cell-Based Dose Response HTS to Identify Activators of 5'UTR Stem-Loop Driven Prion Protein mRNA Translation in H4 Neuroglioblastoma Cells. [Related pubchem assays: 1829 (Project Summary), 1814 (Primary HTS)]. It counts as functional. Conditions: Homo sapiens.
Data set [6] concerns the target Intestinal-type alkaline phosphatase (Homo sapiens, UniProt P09923). In words: inhibition of human intestinal alkaline phosphatase – biochemical, dose response (AID 488876). It counts as functional.
The target of a further data set is Protein Tat (Human immunodeficiency virus type 1 group M subtype B (isolate HXB2)(HIV-1), UniProt P04608). The format is functional.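 Note: tat binding to TAR RNA read out by fluorescence polarization.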
A short description of data set [7]: decrease of insulin promoter-GFP reporter – imaging, high-content screening, mouse beta cells (AID 1628). It counts as functional. Conditions: MIN6.
Data set [8] concerns the target Voltage-dependent T-type calcium channel subunit alpha-1H (Homo sapiens, UniProt O95180). In words: inhibition of CACNA1H calcium flux – cell-based, SynthLib3 library, HEK293 Cav3.2, fluorescence (AID 493041). The format is functional. On the technique in general: A change in cytosolic calcium serves as a functional read-out for many receptors and channels.
For a further data set, the target named is T4, Estrogen receptor (Homo sapiens, UniProt P03372).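 Note: potency for inhibiting coactivator peptide recruitment to the receptor.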
T4 sequence (P03372 whole entry): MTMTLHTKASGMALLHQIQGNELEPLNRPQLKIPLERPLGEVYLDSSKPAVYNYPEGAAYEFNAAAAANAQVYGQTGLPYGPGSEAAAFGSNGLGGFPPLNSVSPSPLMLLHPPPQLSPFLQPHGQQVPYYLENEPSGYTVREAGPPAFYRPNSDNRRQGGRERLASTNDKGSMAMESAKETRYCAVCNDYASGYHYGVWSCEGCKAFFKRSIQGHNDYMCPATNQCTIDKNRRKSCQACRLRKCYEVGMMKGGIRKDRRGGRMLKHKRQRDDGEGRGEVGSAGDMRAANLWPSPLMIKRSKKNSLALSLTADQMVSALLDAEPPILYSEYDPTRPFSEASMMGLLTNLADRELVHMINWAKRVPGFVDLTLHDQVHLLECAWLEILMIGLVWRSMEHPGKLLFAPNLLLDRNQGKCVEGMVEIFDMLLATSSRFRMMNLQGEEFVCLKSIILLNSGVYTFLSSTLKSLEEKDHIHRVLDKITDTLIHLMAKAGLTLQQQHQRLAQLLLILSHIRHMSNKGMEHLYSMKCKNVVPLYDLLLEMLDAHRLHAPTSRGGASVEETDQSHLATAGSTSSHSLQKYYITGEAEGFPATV

A further data set addresses CAAX prenyl protease 1 (Saccharomyces cerevisiae S288c, UniProt P47154). In words: yeast CAAX protease Ste24 inhibition – biochemical, S. cerevisiae, plate reader, cherry-pick, dose response (AID 488815).
In the next data set the target is Trypsin (Sus scrofa, UniProt P00761). In words: trypsin protease activity blockade – biochemical, quenched peptide fluorescence, cherry-pick, selectivity assay for Rce1 protease inhibitor project, dose response (AID 488789).

The structures appear in SMILES notation. Active and inactive are the calls of the source. Where only a bound is given, the exact number is not on record here.

Large T antigen, sequence (P03070 whole entry): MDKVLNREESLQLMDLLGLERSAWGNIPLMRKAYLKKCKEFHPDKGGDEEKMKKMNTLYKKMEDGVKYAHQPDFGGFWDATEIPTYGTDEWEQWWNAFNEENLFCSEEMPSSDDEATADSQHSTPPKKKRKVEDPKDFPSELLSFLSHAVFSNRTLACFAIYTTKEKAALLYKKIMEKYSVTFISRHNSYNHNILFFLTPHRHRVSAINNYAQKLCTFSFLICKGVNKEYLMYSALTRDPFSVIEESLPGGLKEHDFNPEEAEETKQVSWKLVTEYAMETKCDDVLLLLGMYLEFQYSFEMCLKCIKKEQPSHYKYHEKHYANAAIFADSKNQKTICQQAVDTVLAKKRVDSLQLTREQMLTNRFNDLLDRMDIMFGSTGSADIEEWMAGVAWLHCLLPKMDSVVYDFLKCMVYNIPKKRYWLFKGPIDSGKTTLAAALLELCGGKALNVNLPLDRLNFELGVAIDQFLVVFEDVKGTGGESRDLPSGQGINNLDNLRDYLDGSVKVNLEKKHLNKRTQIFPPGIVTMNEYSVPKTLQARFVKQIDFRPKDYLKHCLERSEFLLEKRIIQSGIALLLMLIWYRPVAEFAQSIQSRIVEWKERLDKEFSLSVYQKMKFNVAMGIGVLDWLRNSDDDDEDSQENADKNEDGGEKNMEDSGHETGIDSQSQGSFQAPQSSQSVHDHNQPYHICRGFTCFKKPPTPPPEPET
CAAX prenyl protease 1, sequence (P47154 whole entry): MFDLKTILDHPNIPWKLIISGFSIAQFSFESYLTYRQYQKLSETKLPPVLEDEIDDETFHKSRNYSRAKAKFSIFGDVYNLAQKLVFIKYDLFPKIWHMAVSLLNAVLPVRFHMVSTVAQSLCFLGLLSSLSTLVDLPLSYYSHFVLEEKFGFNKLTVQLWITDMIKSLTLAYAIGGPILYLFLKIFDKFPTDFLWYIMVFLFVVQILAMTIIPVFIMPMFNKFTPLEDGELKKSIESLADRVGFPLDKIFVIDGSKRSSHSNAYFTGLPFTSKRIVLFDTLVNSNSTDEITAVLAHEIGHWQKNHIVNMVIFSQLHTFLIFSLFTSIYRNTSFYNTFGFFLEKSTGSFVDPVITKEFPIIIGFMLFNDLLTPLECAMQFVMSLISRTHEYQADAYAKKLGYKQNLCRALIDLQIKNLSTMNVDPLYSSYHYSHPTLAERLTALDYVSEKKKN
Protein Tat, sequence (P04608 whole entry): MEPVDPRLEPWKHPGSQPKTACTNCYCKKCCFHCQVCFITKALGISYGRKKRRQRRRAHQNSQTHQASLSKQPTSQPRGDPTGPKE
Intestinal-type alkaline phosphatase (Mus musculus, UniProt P24822), sequence (P24822 whole entry): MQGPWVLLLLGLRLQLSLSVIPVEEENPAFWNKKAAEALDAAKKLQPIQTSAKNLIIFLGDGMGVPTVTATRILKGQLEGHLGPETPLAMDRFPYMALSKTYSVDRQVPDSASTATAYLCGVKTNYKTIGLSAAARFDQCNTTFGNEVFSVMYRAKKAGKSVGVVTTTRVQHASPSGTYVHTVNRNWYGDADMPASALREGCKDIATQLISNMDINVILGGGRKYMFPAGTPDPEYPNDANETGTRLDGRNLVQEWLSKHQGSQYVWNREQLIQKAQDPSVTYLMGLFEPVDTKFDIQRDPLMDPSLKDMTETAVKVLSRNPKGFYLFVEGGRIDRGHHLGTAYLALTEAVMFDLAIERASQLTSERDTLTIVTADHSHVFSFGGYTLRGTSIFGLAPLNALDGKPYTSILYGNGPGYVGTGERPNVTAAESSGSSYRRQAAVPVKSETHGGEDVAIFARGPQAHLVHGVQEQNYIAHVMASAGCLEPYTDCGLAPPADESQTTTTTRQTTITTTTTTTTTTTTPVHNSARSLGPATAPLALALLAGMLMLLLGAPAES
Voltage-dependent T-type calcium channel subunit alpha-1H, sequence (O95180 whole entry): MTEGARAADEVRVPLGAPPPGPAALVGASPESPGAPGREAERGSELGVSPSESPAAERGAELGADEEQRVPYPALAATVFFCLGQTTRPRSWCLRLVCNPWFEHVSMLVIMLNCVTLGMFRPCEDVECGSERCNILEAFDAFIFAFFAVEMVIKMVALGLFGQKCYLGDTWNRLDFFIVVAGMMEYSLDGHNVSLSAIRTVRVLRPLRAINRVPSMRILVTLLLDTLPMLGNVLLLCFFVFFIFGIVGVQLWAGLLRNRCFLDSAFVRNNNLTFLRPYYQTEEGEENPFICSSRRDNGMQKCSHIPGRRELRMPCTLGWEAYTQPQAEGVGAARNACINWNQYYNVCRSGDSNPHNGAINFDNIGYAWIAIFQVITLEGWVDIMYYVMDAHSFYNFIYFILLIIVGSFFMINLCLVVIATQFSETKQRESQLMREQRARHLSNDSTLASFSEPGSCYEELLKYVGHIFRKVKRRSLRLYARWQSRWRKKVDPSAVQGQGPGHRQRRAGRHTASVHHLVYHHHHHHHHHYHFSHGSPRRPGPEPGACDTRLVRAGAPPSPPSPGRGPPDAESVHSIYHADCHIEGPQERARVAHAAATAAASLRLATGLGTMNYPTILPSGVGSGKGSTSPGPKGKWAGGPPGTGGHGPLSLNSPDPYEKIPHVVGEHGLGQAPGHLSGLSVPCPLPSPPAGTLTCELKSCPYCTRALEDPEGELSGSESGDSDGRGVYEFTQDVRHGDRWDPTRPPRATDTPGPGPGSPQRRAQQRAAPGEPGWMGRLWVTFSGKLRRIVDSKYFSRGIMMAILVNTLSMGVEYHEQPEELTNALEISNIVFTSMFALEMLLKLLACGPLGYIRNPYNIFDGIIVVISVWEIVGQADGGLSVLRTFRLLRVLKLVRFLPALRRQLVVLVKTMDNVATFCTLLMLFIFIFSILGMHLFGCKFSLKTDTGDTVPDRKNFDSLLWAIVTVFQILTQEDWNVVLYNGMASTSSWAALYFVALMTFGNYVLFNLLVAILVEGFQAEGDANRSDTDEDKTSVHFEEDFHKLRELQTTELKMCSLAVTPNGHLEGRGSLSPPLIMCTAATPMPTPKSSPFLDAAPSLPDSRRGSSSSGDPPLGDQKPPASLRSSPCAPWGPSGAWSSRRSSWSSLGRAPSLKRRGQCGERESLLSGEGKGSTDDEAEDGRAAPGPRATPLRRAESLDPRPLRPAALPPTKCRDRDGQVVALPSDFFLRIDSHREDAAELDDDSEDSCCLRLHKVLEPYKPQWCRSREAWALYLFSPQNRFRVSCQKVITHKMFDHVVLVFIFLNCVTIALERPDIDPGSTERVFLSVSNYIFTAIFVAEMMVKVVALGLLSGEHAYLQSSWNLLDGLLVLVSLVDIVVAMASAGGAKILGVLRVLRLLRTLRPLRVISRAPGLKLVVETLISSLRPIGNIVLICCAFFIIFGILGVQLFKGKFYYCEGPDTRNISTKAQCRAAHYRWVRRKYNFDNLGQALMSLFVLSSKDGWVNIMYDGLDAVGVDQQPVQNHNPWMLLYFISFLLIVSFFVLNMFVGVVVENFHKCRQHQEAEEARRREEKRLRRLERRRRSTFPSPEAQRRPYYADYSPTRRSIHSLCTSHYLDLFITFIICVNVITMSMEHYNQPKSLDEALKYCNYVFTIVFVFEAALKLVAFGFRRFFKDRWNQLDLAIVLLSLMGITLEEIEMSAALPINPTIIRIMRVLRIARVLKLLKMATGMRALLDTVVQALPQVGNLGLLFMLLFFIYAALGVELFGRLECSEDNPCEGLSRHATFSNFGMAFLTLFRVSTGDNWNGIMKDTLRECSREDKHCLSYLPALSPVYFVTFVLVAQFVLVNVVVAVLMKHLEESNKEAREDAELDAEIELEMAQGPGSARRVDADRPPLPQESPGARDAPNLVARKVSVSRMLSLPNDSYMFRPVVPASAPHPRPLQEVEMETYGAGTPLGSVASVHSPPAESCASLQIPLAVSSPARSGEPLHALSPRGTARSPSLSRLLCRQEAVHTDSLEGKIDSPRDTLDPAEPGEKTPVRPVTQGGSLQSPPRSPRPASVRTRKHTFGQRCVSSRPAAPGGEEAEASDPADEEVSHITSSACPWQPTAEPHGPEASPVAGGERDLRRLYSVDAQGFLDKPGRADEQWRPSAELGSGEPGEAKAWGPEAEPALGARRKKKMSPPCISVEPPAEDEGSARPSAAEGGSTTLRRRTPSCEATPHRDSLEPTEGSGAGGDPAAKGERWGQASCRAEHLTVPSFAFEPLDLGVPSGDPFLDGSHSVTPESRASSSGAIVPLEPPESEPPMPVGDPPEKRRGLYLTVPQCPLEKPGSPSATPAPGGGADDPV
Intestinal-type alkaline phosphatase (Homo sapiens, UniProt P09923), sequence (P09923 whole entry): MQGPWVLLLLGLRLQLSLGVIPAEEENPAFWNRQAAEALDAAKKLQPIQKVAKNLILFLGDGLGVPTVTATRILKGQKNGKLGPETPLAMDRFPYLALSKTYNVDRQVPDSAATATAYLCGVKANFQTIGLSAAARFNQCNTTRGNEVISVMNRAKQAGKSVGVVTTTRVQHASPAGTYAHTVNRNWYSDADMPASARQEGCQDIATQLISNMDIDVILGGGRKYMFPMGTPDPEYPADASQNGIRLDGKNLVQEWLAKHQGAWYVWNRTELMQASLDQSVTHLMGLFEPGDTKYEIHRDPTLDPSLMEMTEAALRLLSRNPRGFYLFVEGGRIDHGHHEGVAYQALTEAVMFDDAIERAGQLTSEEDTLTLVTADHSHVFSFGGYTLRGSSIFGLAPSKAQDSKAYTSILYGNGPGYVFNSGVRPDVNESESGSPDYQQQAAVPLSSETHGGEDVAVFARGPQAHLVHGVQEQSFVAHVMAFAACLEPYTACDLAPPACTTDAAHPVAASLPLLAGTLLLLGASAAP
Trypsin, sequence (P00761 whole entry): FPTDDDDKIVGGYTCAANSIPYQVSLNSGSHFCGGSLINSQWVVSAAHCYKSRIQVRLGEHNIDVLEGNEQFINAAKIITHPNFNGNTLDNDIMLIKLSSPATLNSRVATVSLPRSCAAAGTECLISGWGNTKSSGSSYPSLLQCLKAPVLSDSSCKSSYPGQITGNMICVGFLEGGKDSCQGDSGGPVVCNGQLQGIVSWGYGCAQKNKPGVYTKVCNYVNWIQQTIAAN

`Nc1ncnc2c1ncn2[C@H]1O[C@@H](C(=O)OCCO)[C@@H](O)[C@H]1O`: at Cytochrome P450 1A2, the AC50 result is reported as “inconclusive”.
Turning to `C/N=c1\scc(-c2ccco2)n1/N=C/c1ccc(O)c(O)c1`, the IC50 was 1.7 µM (active) in data set [1]; 30.3 µM (active) in data set [2]; 29.7 µM (active) in data set [4]; 25.5 µM (active) at Large T antigen; 3.56 µM (active) in [5]; 13.4 µM (active) in [6]. Moreover, the IC50 is > 100 µM (active) on Protein Tat and 6.81 µM (active) in [7]. Moreover, the CC50 in data set [3] is 9.16 µM (active). Further, the EC50 in the data set with H4 is 70.2 µM (active).
On to `CC(C)CCN1C[C@@H]2C(CNC(=O)c3cc(Cl)cc(Cl)c3)[C@@H]2C1` (stereo not given in full), for which the EC50 in data set [8] is 1.9 µM (active).
For `O=C(CSc1n[nH]c(-c2ccc(S(=O)(=O)N3CCCCC3)cc2)n1)Nc1nccs1`, the IC50 against Estrogen receptor is reported as 47.2 µM (not active). Moreover, the AC50 on CAAX prenyl protease 1 is 8.82 µM (active); at Trypsin it was 21.3 µM (active).

What is called AC50 is the concentration at which the activity in the assay is half-maximal. As a reminder, the IC50 is the midpoint of a concentration-inhibition curve. In general, CC50 refers to the concentration at which the toxic effect on the cells reaches its halfway point. The term EC50 denotes the concentration needed to bring the measured effect to its halfway point.

These data come from ChEMBL document CHEMBL1201862, “PubChem BioAssay data set” (2004).
